Source: patent publication US10611748B2, “Xanthone derivatives for the treatment of hepatitis B virus disease” (Hoffmann-La Roche Inc., priority 2017, dated 2020)

Tested on: extracellular HBeAg level (surrogate marker for cccDNA) in HepDES19 cells
Test: HepDES19 primary screen assay
Assay type: cell-based, HBV
Details: Hepatitis B virus, 120 h, 5 days compound incubation, HBeAg ELISA
Description: The assay was employed to primarily screen for novel cccDNA inhibitors. HepDES19 is an engineered cell line which contains a 1.1 unit length HBV genome, and pgRNA transcription from the transgene is controlled by Tetracycline (Tet). In the absence of Tet, pgRNA transcription will be induced, but HBV e antigen (HBeAg) could not be produced from this pgRNA due to the fact that the very short leader sequence before the HBeAg start codondisrupted the start codon. Only after cccDNA is formed, the missing leader sequence and start codon mutation would be restored from the 3′-terminal redundancy of pgRNA, and then HBeAg could be synthesized. Therefore, HBeAg could be used as a surrogate marker for cccDNA (Zhou, T. et al., Antiviral Res(2006), 72(2), 116-124; Guo, H. et al., J. Virol (2007), 81(22), 12472-12484).
HepDES19 cells were seeded at 2×10^6 cells per T150 flask and cultured with the culture medium (Dulbecco's Modified Eagle Medium: Nutrient Mixture F-12 (DMEM:F12, Gibco Cat. 11320-82), 10% Fetal Bovine Serum (FBS, Clontech Cat. 631101), 0.1 mM Non-Essential Amino Acids Solution (NEAA, Gibco Cat. 11140-050), 50 μg/mL Penicillin-Streptomycin (PS, Invitrogen Cat. 15140-163), 500 μg/mL Geneticin (G418, Invitrogen Cat. 10131-027) containing 3 μg/mL Tet (Sigma, Cat. 87128) for 5 days. Cells were then seeded at 4×10^6 cells per T150 in the same culture medium as described above in the absence of Tet for 8 days. Cells were then harvested and frozen at density of 2×10^6 cells per mL. For compound testing, the frozen cells were thawed and seeded into 96-well plates at a density of 6×10^4 cells per well. At 24 hrs after seeding, half log serial dilutions of compounds made with Dimethyl sulfoxide (DMSO, Sigma, Cat. D2650) were further diluted with the same culture medium as described above before they were added to the cells to reach desired final compound concentrations and 1% DMSO concentration. Plates were then incubated at 37° C. for another 5 days before measurement of HBeAg level and cell viability. Extracellular HBeAg level were measured with enzyme-linked immunosorbent assay (ELISA) kit (Shanghai Kehua Diagnostic Medical Products Co., Ltd). Cell viability was assessed using Cell Counting Kit-8 (Donjindo, Cat. CK04-20). IC50 values were derived from the dose-response curve using 4 parameter logistic curve fit method.
The compounds of the present invention were tested for their capacity to inhibit extracellular HBeAg level as described herein.

Question: How did the IC50 turn out when `OC1(C(F)(F)F)c2ccc(N3CCCC3)cc2Oc2c(Cl)cccc21` (stereo not shown) [Example 59, 5-chloro-3-pyrrolidin-1-yl-9-(trifluoromethyl)xanthen-9-ol] was run?
Answer: 19.2 µM

Question: How did the IC50 turn out when `O=C(O)[C@@H]1CN(c2ccc3c(=O)c4cccc(Cl)c4oc3c2)C[C@H]1c1ccc(Cl)cc1` [Example 20, (3S,4R)-1-(5-chloro-9-oxo-xanthen-3-yl)-4-(4-chlorophenyl)pyrrolidine-3-carboxylic Acid] was run?
Answer: 46.6 µM

Question: With `O=c1c2ccc(N3CCCC3)cc2oc2c(F)cccc12` [Example 21, 5-fluoro-3-pyrrolidin-1-yl-xanthen-9-one] as the compound, how does the IC50 read?
Answer: 0.27 µM

Question: How did the IC50 turn out when `CC1c2ccc(N3CCC(C(=O)O)C3)cc2Oc2c(Cl)cccc21` (stereo not shown) [Example 75, 1-(5-chloro-9-methyl-9H-xanthen-3-yl)pyrrolidine-3-carboxylic Acid] was run?
Answer: 10.1 µM

Question: How did the IC50 turn out when `CN(C)C(=O)C1CCN(c2ccc3c(=O)c4cccc(Cl)c4oc3c2)C1` (stereo not shown) [Example 46, 1-(5-chloro-9-oxo-xanthen-3-yl)-N,N-dimethyl-pyrrolidine-3-carboxamide] was run?
Answer: 4.3 µM

Question: How did the IC50 turn out when `O=C1CCCN1c1ccc2c(=O)c3cccc(F)c3oc2c1` [Example 23, 1-(5-fluoro-9-oxo-xanthen-3-yl)pyrrolidin-2-one] was run?
Answer: 0.83 µM

Question: Which IC50 does the source give for `O=c1c2ccc(N3CCCC3)nc2oc2c(Cl)cccc12` [Example 64, 9-chloro-2-pyrrolidin-1-yl-chromeno[2,3-b]pyridin-5-one] here?
Answer: 35 µM

Question: Which IC50 does the source give for `O=C(O)[C@@H]1CCN(c2ccc3c(=O)c4c(Cl)ccc(Cl)c4oc3c2)C1` [Example 69, (3R)-1-(5,8-dichloro-9-oxo-xanthen-3-yl)pyrrolidine-3-carboxylic Acid] here?
Answer: 0.96 µM

Question: For `O=c1c2ccc(N3CCC(c4ccncc4)C3)cc2oc2c(F)cccc12` (stereo not shown) [Example 34, 5-fluoro-3-[3-(4-pyridyl)pyrrolidin-1-yl]xanthen-9-one], which IC50 is on record?
Answer: 6.15 µM

Question: For `Clc1cccc2c1Oc1c(cc(Cl)c(N3CCCC3)c1Cl)C2` [Example 56, 1-(2,4,5-trichloro-9H-xanthen-3-yl)pyrrolidine], which IC50 is on record?
Answer: 6.28 µM

Question: Which IC50 does the source give for `O=C(O)C1CCN(c2ccc3c(=O)c4cccc(C(F)(F)F)c4oc3c2)C1` (stereo not shown) [Example 37, 1-[9-oxo-5-(trifluoromethyl)xanthen-3-yl]pyrrolidine-3-carboxylic Acid] here?
Answer: 13.4 µM

Question: For `O=C(O)[C@H]1CCN(c2ccc3c(=O)c4cccc(Cl)c4sc3c2)C1` [Example 72, (3S)-1-(5-chloro-9-oxo-thioxanthen-3-yl)pyrrolidine-3-carboxylic Acid], which IC50 is on record?
Answer: 3.6 µM

Question: `CN1CCN(c2ccc3c(=O)c4cccc(F)c4oc3c2)CC1` [Example 38, 5-fluoro-3-(4-methylpiperazin-1-yl)xanthen-9-one] was tested. Which IC50 did it give?
Answer: 16.1 µM

Question: How did the IC50 turn out when `Clc1cccc2c1Oc1cc(N3CCCC3)ccc1C2` [Example 55, 1-(5-chloro-9H-xanthen-3-yl)pyrrolidine] was run?
Answer: 1.11 µM

Question: How did the IC50 turn out when `O=c1c2ccc(N3CCC4(CCNC4)C3)cc2oc2c(F)cccc12` (stereo not shown) [Example 48, 3-(2,7-diazaspiro[4.4]nonan-2-yl)-5-fluoro-xanthen-9-one] was run?
Answer: 5.48 µM

Question: `O=c1c2ccc(N3CCC(CO)C3)cc2oc2c(Cl)cccc12` (stereo not shown) [Example 10, 5-chloro-3-[3-(hydroxymethyl)pyrrolidin-1-yl]xanthen-9-one] was tested. Which IC50 did it give?
Answer: 1.13 µM

Question: With `O=c1c2ccc(N3CCCC(O)C3)cc2oc2c(Cl)cccc12` (stereo not shown) [Example 12, 5-chloro-3-(3-hydroxy-1-piperidyl)xanthen-9-one] as the compound, how does the IC50 read?
Answer: 2.88 µM

Question: With `CC1(C(=O)O)CCN(c2ccc3c(=O)c4cccc(Cl)c4oc3c2)C1` (stereo not shown) [Example 16, 1-(5-chloro-9-oxo-xanthen-3-yl)-3-methyl-pyrrolidine-3-carboxylic Acid] as the compound, how does the IC50 read?
Answer: 11.2 µM

Question: How did the IC50 turn out when `O=C(O)C1CCCN(c2ccc3c(=O)c4cccc(Cl)c4oc3c2)C1` (stereo not shown) [Example 14, 1-(5-chloro-9-oxo-xanthen-3-yl)piperidine-3-carboxylic acid] was run?
Answer: 5.79 µM

Question: Which IC50 does the source give for `O=c1c2ccc(N3CCCC3)cc2oc2c(F)ccc(Cl)c12` [Example 22, 1-chloro-4-fluoro-6-pyrrolidin-1-ylxanthen-9-one] here?
Answer: 0.74 µM

Question: With `O=c1c2cc(Cl)c(N3CCCC3)cc2oc2c(F)cccc12` [Example 68, 2-chloro-5-fluoro-3-pyrrolidin-1-yl-xanthen-9-one] as the compound, how does the IC50 read?
Answer: 1.18 µM

Question: How did the IC50 turn out when `O=c1c2ccc(N3CCCCCC3)cc2oc2c(F)cccc12` [Example 13, 3-(azepan-1-yl)-5-fluoro-xanthen-9-one] was run?
Answer: 5.49 µM

Question: With `O=c1c2ccc(N3CCCCC3)cc2oc2c(F)cccc12` [Example 9, 5-fluoro-3-(1-piperidyl)xanthen-9-one] as the compound, how does the IC50 read?
Answer: 0.98 µM

Question: For `O=C(C1CCN(c2ccc3c(=O)c4cccc(Cl)c4oc3c2)C1)N1CCOCC1` (stereo not shown) [Example 65, 5-chloro-3-[3-(morpholine-4-carbonyl)pyrrolidin-1-yl]xanthen-9-one], which IC50 is on record?
Answer: 3.89 µM

Question: For `O=C(O)C1(C(F)(F)F)CCN(c2ccc3c(=O)c4cccc(Cl)c4oc3c2)C1` (stereo not shown) [Example 19, 1-(5-chloro-9-oxo-xanthen-3-yl)-3-(trifluoromethyl)pyrrolidine-3-carboxylic Acid], which IC50 is on record?
Answer: 27 µM

Question: With `CC1(C)CN(c2ccc3c(=O)c4cccc(Cl)c4oc3c2)CC1C(=O)O` (stereo not shown) [Example 17, 1-(5-chloro-9-oxo-xanthen-3-yl)-4,4-dimethyl-pyrrolidine-3-carboxylic Acid] as the compound, how does the IC50 read?
Answer: 12.7 µM

Question: How did the IC50 turn out when `O=C(O)C1CCN(c2ccc3c(=O)c4cc(Cl)cc(Cl)c4oc3c2)C1` (stereo not shown) [Example 70, 1-(5,7-dichloro-9-oxo-xanthen-3-yl)pyrrolidine-3-carboxylic Acid] was run?
Answer: 5.9 µM

Question: `O=C(O)[C@H]1CN(c2ccc3c(=O)c4cccc(Cl)c4oc3c2)C[C@@H]1c1ccc(F)cc1` [Example 15, (3R,4S)-1-(5-chloro-9-oxo-xanthen-3-yl)-4-(4-fluorophenyl)pyrrolidine-3-carboxylic Acid] was tested. Which IC50 did it give?
Answer: 7.39 µM

Question: How did the IC50 turn out when `COC(=O)C1CCN(c2ccc3c(=O)c4cccc(Cl)c4oc3c2)C1` (stereo not shown) [Example 11, Methyl 1-(5-chloro-9-oxo-xanthen-3-yl)pyrrolidine-3-carboxylate] was run?
Answer: 1.17 µM

Question: For `CC(=O)OC(c1cccc(F)c1Cl)C1c2ccc(N3CCCC3)cc2Oc2c(Cl)cccc21` (stereo not shown) [Example 58, [(2-chloro-3-fluoro-phenyl)-(5-chloro-3-pyrrolidin-1-yl-9H-xanthen-9-yl)methyl]acetate], which IC50 is on record?
Answer: 11.7 µM

Question: `O=c1c2ccc(N3CCCC3)nc2oc2c(F)cccc12` [Example 63, 9-fluoro-2-pyrrolidin-1-yl-chromeno[2,3-b]pyridin-5-one] was tested. Which IC50 did it give?
Answer: 19.2 µM

Question: With `O=c1c2ccc(N3CC[C@H](O)C3)cc2oc2c(F)cccc12` [Example 31, 5-fluoro-3-[(3S)-3-hydroxypyrrolidin-1-yl]xanthen-9-one] as the compound, how does the IC50 read?
Answer: 2.71 µM

Question: `Fc1cccc2c1Oc1cc(N3CCCC3)ccc1C2` [Example 62, 1-(5-fluoro-9H-xanthen-3-yl)pyrrolidine] was tested. Which IC50 did it give?
Answer: 3.99 µM

Question: Which IC50 does the source give for `O=C(O)[C@@H]1CCN(c2ccc3c(=O)c4cccc(Cl)c4sc3c2)C1` [Example 73, (3R)-1-(5-chloro-9-oxo-thioxanthen-3-yl)pyrrolidine-3-carboxylic Acid] here?
Answer: 2.6 µM

Question: For `O=c1c2ccc(N3CCCNCC3)cc2oc2c(F)cccc12` [Example 49, 3-(1,4-diazepan-1-yl)-5-fluoro-xanthen-9-one], which IC50 is on record?
Answer: 7.56 µM

Question: Which IC50 does the source give for `COC1(C(F)(F)F)c2ccc(N3CCCC3)cc2Oc2c(Cl)cccc21` (stereo not shown) [Example 60, 1-[5-chloro-9-methoxy-9-(trifluoromethyl)xanthen-3-yl]pyrrolidine] here?
Answer: 22.2 µM

Question: With `N[C@H]1CCN(c2ccc3c(=O)c4cccc(F)c4oc3c2)C1` [Example 50, 3-[(3S)-3-aminopyrrolidin-1-yl]-5-fluoro-xanthen-9-one] as the compound, how does the IC50 read?
Answer: 3.12 µM

Question: `O=c1c2ccc(N3CCCC3)cc2oc2c(F)cc(Cl)cc12` [Example 35, 2-chloro-4-fluoro-6-pyrrolidin-1-yl-xanthen-9-one] was tested. Which IC50 did it give?
Answer: 16.7 µM

Question: For `O=C(O)C1CCN(c2ccc3c(=O)c4cc(F)cc(Cl)c4oc3c2)C1` (stereo not shown) [Example 71, 1-(5-chloro-7-fluoro-9-oxo-xanthen-3-yl)pyrrolidine-3-carboxylic Acid], which IC50 is on record?
Answer: 13 µM

Question: How did the IC50 turn out when `O=c1c2ccc(N3CCCC3)cc2oc2c(Cl)cccc12` [Example 1, 5-chloro-3-pyrrolidin-1-yl-xanthen-9-one] was run?
Answer: 0.23 µM

Question: With `O=c1c2ccc(N3CCOCC3)cc2oc2c(F)cccc12` [Example 29, 5-fluoro-3-morpholino-xanthen-9-one] as the compound, how does the IC50 read?
Answer: 2.13 µM

Question: How did the IC50 turn out when `O=c1c2ccc(N3CC[C@@H](O)C3)cc2oc2c(F)cccc12` [Example 32, 5-fluoro-3-[(3R)-3-hydroxypyrrolidin-1-yl]xanthen-9-one] was run?
Answer: 2.72 µM

Question: Which IC50 does the source give for `O=c1c2cc(F)c(N3CCCC3)cc2oc2c(F)cccc12` [Example 28, 2,5-difluoro-3-pyrrolidin-1-yl-xanthen-9-one] here?
Answer: 1.86 µM
